Experimental data published in patent publication US20240165043A1, “COMPOSITIONS FOR THE TREATMENT OF A DISEASE OF THE URINARY TRACT AND TREATMENT OF A DISEASE INVOLVING THE INTRACELLULAR DELIVERY OF THE PARTICLE OR A MEDICAMENT CONTAINED THEREIN” (UCL BUSINESS LTD, priority 2018, published 2024).

What was measured:
[1] = test system: human urothelial organoid model; assay: Cellular uptake of cargo, three-dimensional bladder organoid; assay type: cell-based; settings: two hours of treatment; free FITC at equivalent amount (14 ug/mL)
Description: The three-dimensional bladder organoid model has been described (Horsley et al, 2017, https://doi.org/10.1101/152033). Briefly, organoids were created as follows. In preparation for organotypic culture, previously frozen cells were thawed and expanded on 9 cm culture dishes as above. Once 70-80% confluent, the cells were washed briefly with calcium- and magnesium-free phosphate buffered saline (PBS, Sigma-Aldrich) and incubated at 37° C. in ˜3 ml of pre-warmed Accutase solution for 2-5 min. The dishes were lightly tapped and detached cells re-suspended in 7 ml of warm CnT-Prime. After centrifugation at 200×g for 5 min, the supernatant was removed and the pellet re-suspended in fresh CnT-Prime. This cell suspension was counted whilst allowing the cells to equilibrate for 3 min at room temperature. […]
The 3D culture inserts were incubated for 3-5 days until 100% confluent. Confluency was determined through the fluorescent staining of 1 insert and visualisation under epi-fluorescence microscopy (see section below). […]
(§1) We performed epi-fluorescence microscopy on an Olympus CX-41 upright microscope, and confocal laser scanning microscopy on Leica SP5 and SP2 microscopes. […] For both still and live imaging, images were processed and analysed using Infinity Capture and Analyze V6.2.0, ImageJ 1.50 h 50 and the Leica Application Suite, Advanced Fluorescence 3.1.0 build 8587 Software.

[2] = test system: human bladder epithelial cells (HBLAK); assay: Cellular uptake of cargo, two-dimensional monolayer; assay type: cell-based; settings: free FITC at 2.5 mg/mL
Description: Commercially available human bladder epithelial cells (HBLAK, CelINTec), which are a spontaneously immortalised, non-transformed derivative of progenitor cells that retain the ability to differentiate, were supplied in frozen aliquots containing ˜5×10^5 cells at passage 2 and ˜0.5×10^5 at passage 25 respectively. The progenitor cells had been isolated from bladder trigone biopsies from male patients undergoing surgery for benign prostatic hyperplasia. HBLAK cells were used up until passage 40-50.
Thawed cells were seeded (˜300 cell clumps/cm^2) into pre-warmed and equilibrated low-calcium, high-bovine pituitary extract, primary epithelial medium (CnT-Prime, Cell N Tec) in 9 cm polystyrene dishes and incubated at 37° C. in a humidified incubator under 5% CO2. Culture medium was replaced after overnight incubation to remove residual dimethyl sulfoxide (DMSO). Antibiotics were not added to culture medium at any point due to adverse effects on cytodifferentiation, metabolism and morphology. […]
as §1

[3] = test system: HBLAK-derived bladder organoids; assay: Cell toxicity assay (LDH release); assay type: cell-based, human; settings: CapFuran 2 mg/ml; equivalent free nitrofurantoin 200 mg/ml as printed; 60 minutes; N=6
Description: A colorimetric […] (LDH) assay kit (Thermo Scientific) was used to measure potential cell damage from CapFuran or nitrofurantoin. The procedure was carried out as directed by the manufacturer. HBLAK-derived bladder organoids were grown for 14 days then exposed to 1000 μl of culture media (control) or 1000 μl of culture media containing CapFuran 1 mg/ml; CapFuran 2 mg/ml; 100 μg/ml unencapsulated nitrofurantoin; 200 μg/ml Nitrofurantoin; 100 μl of 10× lysis buffer (maximum LDH control); or culture medium containing 10% ultra-pure water (to measure spontaneous LDH release). Experiments were carried out in triplicates. All organoids were subsequently incubated for 60 minutes at […] in 5% CO2. After incubation, 50 μl of medium from the apical chamber of each treated organoid was transferred to 3 wells of a flat-bottomed […] (Corning). […] To quantify the amount of LDH released, the 96 well plate was read using a colorimetric sphectrophotometer (Biochrom EZ Read 400) at an absorbance of 492 nm and 650 nm. Microsoft Excel was used to subtract the background reading from the LDH reading before calculating cytotoxicity in % using the following formula: % Cytotoxicity=Treatment associated LDH release−Spontaneous LDH release×100 Maximum LDH activity−Spontaneous LDH release

Row | Molecule | FITC penetration through cell layers [1] | FITC staining of cells by free diffusion [2] | Cytotoxicity (LDH release), mean [3]
1 | fluorescein isothiocyanate [free FITC] | negligible penetration | faint green staining to all cells | –
2 | O=C1CN(/N=C/c2ccc([N+](=O)[O-])o2)C(=O)N1 [nitrofurantoin] | – | – | 6.60%
